In brackets after ≈: the same amount, converted by molar mass. Like-named read-outs stand apart in the source and are kept apart here.
What was measured:
Test in all cases: minimum inhibitory concentration (MIC), antimicrobial activity
Assay type in all cases: cell-based
[1] = test system: Sal.entiritidis 1891
Text: (§1) Concerning the antimicrobial activity of the compounds of this invention of the formula (I), minimum effective inhibitory concentrations (MIC) of the compounds are shown in the following Table.

[2] = test system: Pseud. aeruginosa A3
Text: as §1

[3] = test system: Kl. pnueroniae PCI-602
Text: as §1

[4] = test system: M. luteus PCI 1001
Text: as §1

[5] = test system: Staph. aureus Smith
Text: as §1

[6] = test system: B. Subtilis NRRL B-558
Text: as §1

[7] = Pseudomonas aeruginosa, A3, Pseud. aeruginosa A3, read-out: MIC
[8] = Micrococcus luteus, PCI1001, read-out: MIC
[9] = Staphylococcus aureus, read-out: MIC
[10] = Bacillus subtilis, NRRLB558, read-out: MIC

Compound	MIC [1]	MIC ([2]; Pseud. aeruginosa A3)	MIC [3]	MIC [4]	MIC [5]	MIC [6]	MIC ([1]; read-out: MIC)	MIC [2, 7]	MIC ([3]; read-out: MIC)	MIC [4, 8]	MIC [5, 9]	MIC [6, 10]
23-C-methylmycaminosyl tylonolide diethylacetal [2(2)]	3.12 µg/mL	12.5 µg/mL	3.12 µg/mL	<0.2 µg/mL	1.56 µg/mL	0.78 µg/mL	–	–	–	–	–	–
CCC1OC(=O)CC(O)C(C)C(OC2OC(C)C(O)C(N(C)C)C2O)C(CC=O)CC(C)C(=O)/C=C/C(C)=C/C1C(C)O (single isomer, unassigned) [1(3), 23-C-methylmycaminosyl tylonolide]	–	–	–	–	–	–	3.12 µg/mL (≈ 5.1 µM)	12.5 µg/mL (≈ 20.4 µM)	3.12 µg/mL (≈ 5.1 µM)	< 0.2 µg/mL	1.56 µg/mL (≈ 2.55 µM)	0.78 µg/mL (≈ 1.27 µM)
CCC(O)C1/C=C(C)/C=C/C(=O)C(C)CC(CC=O)C(OC2OC(C)C(O)C(N(C)C)C2O)C(C)C(O)CC(=O)OC1CC (single isomer, unassigned) [4(2), 23-C-ethylmycaminosyl tylonolide]	–	–	–	–	–	–	3.12 µg/mL (≈ 4.99 µM)	6.25 µg/mL (≈ 9.99 µM)	6.25 µg/mL (≈ 9.99 µM)	< 0.2 µg/mL	0.78 µg/mL (≈ 1.25 µM)	0.39 µg/mL (≈ 0.623 µM)
C=CCC(O)C1/C=C(C)/C=C/C(=O)C(C)CC(CC=O)C(OC2OC(C)C(O)C(N(C)C)C2O)C(C)C(O)CC(=O)OC1CC (single isomer, unassigned) [8"F, 23-C-(2-propenyl)mycaminosyl tylonolide]	–	–	–	–	–	–	3.12 µg/mL (≈ 4.89 µM)	6.25 µg/mL (≈ 9.8 µM)	3.12 µg/mL (≈ 4.89 µM)	< 0.2 µg/mL	< 0.2 µg/mL	0.39 µg/mL (≈ 0.611 µM)
C=CC(O)C1/C=C(C)/C=C/C(=O)C(C)CC(CC=O)C(OC2OC(C)CC(N(C)C)C2O)C(C)C(O)CC(=O)OC1CC (single isomer, unassigned) [10"F, 4'-deoxy-23-C-vinylmycaminosyl tylonolide]	–	–	–	–	–	–	3.12 µg/mL (≈ 5.13 µM)	–	3.12 µg/mL (≈ 5.13 µM)	< 0.2 µg/mL	0.78 µg/mL (≈ 1.28 µM)	0.39 µg/mL (≈ 0.642 µM)
C#CC(O)C1/C=C(C)/C=C/C(=O)C(C)CC(CC=O)C(OC2OC(C)CC(N(C)C)C2O)C(C)C(O)CC(=O)OC1CC (single isomer, unassigned) [12"F, 4'-deoxy-23-C-ethinylmycaminosyl tylonolide]	–	–	–	–	–	–	3.12 µg/mL (≈ 5.15 µM)	3.12 µg/mL (≈ 5.15 µM)	1.56 µg/mL (≈ 2.58 µM)	< 0.2 µg/mL	0.78 µg/mL (≈ 1.29 µM)	0.78 µg/mL (≈ 1.29 µM)
CCC1OC(=O)CC(O)C(C)C(OC2OC(C)CC(N(C)C)C2O)C(CC=O)CC(C)C(=O)/C=C/C(C)=C/C1C(C)O (single isomer, unassigned) [Example 5(2), 4'-deoxy-23-C-methylmycaminosyl tylonolide]	–	–	–	–	–	–	3.12 µg/mL (≈ 5.24 µM)	25 µg/mL (≈ 42 µM)	1.56 µg/mL (≈ 2.62 µM)	< 0.2 µg/mL	0.39 µg/mL (≈ 0.655 µM)	0.39 µg/mL (≈ 0.655 µM)
CCC1OC(=O)CC(O)C(C)C(OC2OC(C)CC(N(C)C)C2O)C(CC=O)CC(C)C(=O)/C=C/C(C)=C/C1C(C)O (single isomer, unassigned) [Example 6, 4'-deoxy-23-C-methymycaminosyl tylonolide]	3.12 µg/mL (≈ 5.24 µM)	12.5 µg/mL (≈ 21 µM)	3.12 µg/mL (≈ 5.24 µM)	<0.2 µg/mL	0.39 µg/mL (≈ 0.655 µM)	0.39 µg/mL (≈ 0.655 µM)	–	–	–	–	–	–
C#CC(O)C1C=C(C)C=CC(=O)C(C)CC(CC=O)C(OC2OC(C)C(O)C(N(C)C)C2O)C(C)C(O)CC(=O)OC1CC (centres unmarked) [11"F, 23-C-ethinylmycaminosyl tylonolide]	3.12 µg/mL (≈ 5.02 µM)	6.25 µg/mL (≈ 10.1 µM)	3.12 µg/mL (≈ 5.02 µM)	<0.2 µg/mL	1.56 µg/mL (≈ 2.51 µM)	3.12 µg/mL (≈ 5.02 µM)	–	–	–	–	–	–
CC[C@H]1OC(=O)C[C@@H](O)[C@H](C)[C@@H](O[C@@H]2O[C@H](C)C[C@H](N(C)C)[C@H]2O)[C@@H](CC=O)C[C@@H](C)C(=O)/C=C/C(C)=C/[C@@H]1CO [DT, 4'deoxy mycaminosyl/ tylonolide, reference compound]	1.56 µg/mL (≈ 2.68 µM)	12.5 µg/mL (≈ 21.5 µM)	1.56 µg/mL (≈ 2.68 µM)	<0.2 µg/mL	0.39 µg/mL (≈ 0.67 µM)	1.56 µg/mL (≈ 2.68 µM)	–	–	–	–	–	–
CC[C@H]1OC(=O)C[C@@H](O)[C@H](C)[C@@H](O[C@@H]2O[C@H](C)[C@@H](O)[C@H](N(C)C)[C@H]2O)[C@@H](CC=O)C[C@@H](C)C(=O)/C=C/C(C)=C/[C@@H]1CO [MT, mycaminosyl tylonolide]	3.12 µg/mL (≈ 5.22 µM)	25 µg/mL (≈ 41.8 µM)	3.12 µg/mL (≈ 5.22 µM)	<0.2 µg/mL	1.56 µg/mL (≈ 2.61 µM)	3.12 µg/mL (≈ 5.22 µM)	–	–	–	–	–	–

From patent EP0159881A2, “23-C-substituted mycaminosyl tylonolide” (ZAIDAN HOJIN BISEIBUTSU KAGAKU KENKYU KAI, priority 1984, dated 1985)
